Changes are numbered by the printed parent chain. Where two headings read alike, the source gives them in different places.

In one assay the target is T1, RET(KD: 658-1114 G810R) (Homo sapiens, UniProt P07949, G810R).
T1 construct: 658-1114; expressed in transfected cells; host or cells: 293T.165 (293T cells, generated in-house)
T1 sequence (P07949 658-1114 G810R): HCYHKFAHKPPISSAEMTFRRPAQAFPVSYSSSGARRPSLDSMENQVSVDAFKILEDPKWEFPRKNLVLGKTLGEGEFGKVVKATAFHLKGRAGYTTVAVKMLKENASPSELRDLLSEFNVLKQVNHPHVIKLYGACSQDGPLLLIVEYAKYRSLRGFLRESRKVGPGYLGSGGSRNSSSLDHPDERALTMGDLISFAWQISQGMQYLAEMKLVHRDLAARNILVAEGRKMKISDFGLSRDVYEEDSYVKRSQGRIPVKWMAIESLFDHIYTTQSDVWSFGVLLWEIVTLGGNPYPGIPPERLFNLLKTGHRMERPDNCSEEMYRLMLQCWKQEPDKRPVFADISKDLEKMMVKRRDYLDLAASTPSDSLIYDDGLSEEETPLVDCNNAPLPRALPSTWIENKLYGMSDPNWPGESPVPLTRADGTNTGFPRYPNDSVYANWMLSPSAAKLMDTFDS
As to the kind of experiment: HiBiT-Degradation, RET G810R degradation assay (Nano-Glo HiBiT Lytic), 293T.165 cells. It counts as cell-based. As to conditions: for Emax / DC50: 6.0 hours; for Emax: % remaining protein, read-out: 293T.165 RET(KD: 658-1114 G810R) 6.0 hours (Emax); for DC50: read-out: 293T.165 RET(KD: 658-1114 G810R) 6.0 hours (DC50). In short, it runs like this: (§1)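 HEK293T lines stably expressing HiBiT-tagged RET kinase domain (WT: 293T.144; G810R: 293T.165) were treated with degraders for 6 h in duplicate, 11-point half-log series from 10 μM top dose. Lysis with Nano-Glo HiBiT Lytic reagent, luminescence read; DC50 and Emax (% remaining protein) derived from dose-response curves.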
A general note: HiBiT is a short tag that completes a luciferase, so light tracks the accessible tagged protein.

The next assay addresses T2, RET (658-1114) (Homo sapiens, UniProt P07949).
T2 construct: 658-1114; expressed in transfected cells; host or cells: 293T.144 (293T cells, generated in-house)
T2 sequence (P07949 658-1114): T1 sequence (P07949 658-1114 G810R) with R153G
As to the kind of experiment: HiBiT-Degradation, RET wild-type degradation assay (Nano-Glo HiBiT Lytic), 293T.144 cells. It counts as cell-based. The note with it: for DC50 / Emax: 6.0 hours; for DC50: read-out: 293T.144 RET (658-1114) 6.0 hours (DC50); for Emax: read-out: 293T.144 RET (658-1114) 6.0 hours (Emax). An outline of the steps: as §1

Setting [1] is: half-maximal degradation concentration.

The term Emax denotes the greatest response seen or fitted, relative to the assay's reference. A word on the DC50: it is the midpoint of the concentration-degradation curve. As for `CCC1(C(=O)NC(C)C)CCN(c2ccc(-c3cc(-c4cnn(C5CCN(C(=O)CN6CCC(c7ccc(NC8CCC(=O)NC8=O)cc7F)CC6)CC5)c4)cn4ncc(C#N)c34)cc2)CC1` (stereo not drawn) [Compound 58, 1-[4-[3-cyano-6-[1-[1-[2-[4-[4-[(2,6-dioxo-3-piperidyl)amino]-2-fluoro-phenyl]-1-piperidyl]acetyl]-4-piperidyl]pyrazol-4-yl]pyrazolo[1,5-a]pyridin-4-yl]phenyl]-4-ethyl-N-isopropyl-piperidine-4-carboxamide], the Emax at RET(KD: 658-1114 G810R) is below 50%. The DC50 on RET(KD: 658-1114 G810R) (setting [1]) is below 50 nM. In addition, at RET(KD: 658-1114 G810R) (HiBiT-Degradation), the “293T.165 RET(KD: 658-1114 G810R) 6.0 hours (Emax)” value is “+++ (<50% = +++)”, the “293T.165 RET(KD: 658-1114 G810R) 6.0 hours (IP) [nM]” value is on record as “++++ (< 50 nM = ++++)” and the DC50 was below 50 nM. Besides, on RET (658-1114) (HiBiT-Degradation), the “293T.144 RET (658-1114) 6.0 hours (IP) [nM]” value (“293T.144 RET” below) is listed as “++++ (< 50 nM = ++++)”, the DC50 is below 50 nM and the Emax was below 30%.
Regarding `N#Cc1cnn2cc(-c3cnn([C@H]4CC[C@H](N5CCC(c6ccc(N[C@H]7CCC(=O)NC7=O)cc6F)CC5)CC4)c3)nc(-c3ccc(N4CCC5(CC4)OCc4cccnc45)nc3)c12` (single isomer, unassigned) [Compound 179], on RET(KD: 658-1114 G810R), the “293T.165 RET(KD: 658-1114 G810R) 6.0 hours (IP) [nM]” value is “++++ (<50 nM = ++++)”. The Emax on RET(KD: 658-1114 G810R) and at RET (658-1114) (% remaining protein) was below 30% each time. The DC50 at RET(KD: 658-1114 G810R) (setting [1]) and on RET (658-1114) (setting [1]) was below 50 nM each time. Besides, the “293T.144 RET” value on RET (658-1114) is reported as “++++ (<50 nM = ++++)”.
Take `N#Cc1cnn2cc(-c3cnn([C@H]4CC[C@@H](N5CCN(c6ccc(N[C@H]7CCC(=O)NC7=O)cc6F)CC5)CC4)c3)nc(-c3ccc(N4CC5CC(C4)N5C(=O)c4c(F)cccc4F)nc3)c12` (single isomer, unassigned) [Compound 171]: on RET(KD: 658-1114 G810R), the “293T.165 RET(KD: 658-1114 G810R) 6.0 hours (IP) [nM]” value was “++++ (<50 nM = ++++)”. The Emax at RET(KD: 658-1114 G810R) and on RET (658-1114) (% remaining protein) was below 30% each time. Besides, the DC50 at RET(KD: 658-1114 G810R) (setting [1]) and at RET (658-1114) (setting [1]) was below 50 nM throughout. The “293T.144 RET” value at RET (658-1114) is “++++ (<50 nM = ++++)”.
With `CCC1(C(=O)Nc2ccccc2)CCN(c2ccc(-c3nc(-c4cnn(C5CCN(C(=O)CC6(O)CCN(c7ccc(NC8CCC(=O)NC8=O)cc7Cl)CC6)CC5)c4)cn4ncc(C#N)c34)cn2)CC1` (stereo not drawn) [Compound 98, 1-[5-[6-[1-[1-[2-[1-[2-chloro-4-[(2,6-dioxo-3-piperidyl)amino]phenyl]-4-hydroxy-4-piperidyl]acetyl]-4-piperidyl]pyrazol-4-yl]-3-cyano-pyrazolo[1,5-a]pyrazin-4-yl]-2-pyridyl]-4-ethyl-N-phenyl-piperidine-4-carboxamide], the “293T.165 RET(KD: 658-1114 G810R) 6.0 hours (IP) [nM]” value on RET(KD: 658-1114 G810R) is “++++ (<50 nM = ++++)”. Moreover, the Emax at RET(KD: 658-1114 G810R) and at RET (658-1114) (% remaining protein) was below 30% each time. Further, the DC50 is below 100 nM at RET(KD: 658-1114 G810R) (setting [1]) and below 50 nM on RET (658-1114) (setting [1]). Moreover, at RET (658-1114), the “293T.144 RET” value was “++++ (<50 nM = ++++)”.
In the case of `CCC1(C(=O)NC(C)C)CCN(c2ccc(-c3nc(-c4ccc(N5CCN(C(=O)CC6(O)CCN(c7ccc8c(N9CCC(=O)NC9=O)nn(C)c8c7)CC6)CC5)cc4)cn4ncc(C#N)c34)cn2)CC1` [Compound 173, 1-(5-(3-cyano-6-(4-(4-(2-(1-(3-(2,4-dioxotetrahydropyrimidin-1(2H)-yl)-1-methyl-1H-indazol-6-yl)-4-hydroxypiperidin-4-yl)acetyl)piperazin-1-yl)phenyl)pyrazolo[1,5-a]pyrazin-4-yl)pyridin-2-yl)-4-ethyl-N-isopropylpiperidine-4-carboxamide], on RET(KD: 658-1114 G810R), the “293T.165 RET(KD: 658-1114 G810R) 6.0 hours (IP) [nM]” value is reported as “+++ (<100 nM = +++)”. The Emax on RET(KD: 658-1114 G810R) is below 50%; on RET (658-1114) (% remaining protein) it was below 30%. Further, the DC50 is below 100 nM at RET(KD: 658-1114 G810R) (setting [1]) and below 50 nM on RET (658-1114) (setting [1]). Further, the “293T.144 RET” value at RET (658-1114) is given as “++++ (<50 nM = ++++)”.
On to `CCC1(C(=O)NC2CCC2)CCN(c2ccc(-c3nc(-c4cnn([C@H]5CC[C@H](CN6CCN(c7ccc(N[C@H]8CCC(=O)NC8=O)cc7F)CC6)CC5)c4)cn4ncc(C#N)c34)cn2)CC1` [Compound 189, 1-[5-[3-cyano-6-[1-[4-[[4-[4-[[(3S)-2,6-dioxo-3-piperidyl]amino]-2-fluoro-phenyl]piperazin-1-yl]methyl]cyclohexyl]pyrazol-4-yl]pyrazolo[1,5-a]pyrazin-4-yl]-2-pyridyl]-N-cyclobutyl-4-ethyl-piperidine-4-carboxamide], for which the “293T.165 RET(KD: 658-1114 G810R) 6.0 hours (IP) [nM]” value at RET(KD: 658-1114 G810R) is given as “++++ (<50 nM = ++++)”. The Emax at RET(KD: 658-1114 G810R) and on RET (658-1114) (% remaining protein) was below 30% each time. The DC50 at RET(KD: 658-1114 G810R) (setting [1]) is below 100 nM; at RET (658-1114) (setting [1]), below 50 nM. The “293T.144 RET” value on RET (658-1114) is “++++ (<50 nM = ++++)”.
For the compound `N#Cc1cnn2cc(-c3cnn([C@H]4CC[C@@H](N5CCN(c6c(F)cc(NC7CCC(=O)NC7=O)cc6F)CC5)CC4)c3)nc(-c3ccc(N4CCC5(CC4)CCN5c4nccc(Cl)n4)nc3)c12` (single isomer, unassigned) [Compound 204, 4-(6-(1-(4-Chloropyrimidin-2-yl)-1,7-diazaspiro[3.5]nonan-7-yl)pyridin-3-yl)-6-(1-((1s, 4s)-4-(4-(4-((2,6-dioxopiperidin-3-yl)amino)-2,6-difluorophenyl)piperazin-1-yl)cyclohexyl)-1H-pyrazol-4-yl)pyrazolo[1,5-a]pyrazine-3-carbonitrile], the “293T.165 RET(KD: 658-1114 G810R) 6.0 hours (IP) [nM]” value at RET(KD: 658-1114 G810R) was “+++ (<100 nM = +++)”. The Emax at RET(KD: 658-1114 G810R) and at RET (658-1114) (% remaining protein) was below 30% each time. In addition, the DC50 at RET(KD: 658-1114 G810R) (setting [1]) is below 100 nM; on RET (658-1114) (setting [1]), below 50 nM. Further, the “293T.144 RET” value at RET (658-1114) is on record as “++++ (<50 nM = ++++)”.
Take `N#Cc1cnn2cc(-c3cnn(C4CCN(C(=O)CN5CCC(c6ccc(NC7CCC(=O)NC7=O)cc6F)CC5)CC4)c3)nc(-c3ccc(N4CCN(C(=O)Cc5ccc(F)cn5)CC4)nc3)c12` (stereo not drawn) [Compound 51, 6-[1-[1-[2-[4-[4-[(2,6-dioxo-3-piperidyl)amino]-2-fluoro-phenyl]-1-piperidyl]acetyl]-4-piperidyl]pyrazol-4-yl]-4-[6-[4-[2-(5-fluoro-2-pyridyl)acetyl]piperazin-1-yl]-3-pyridyl]pyrazolo[1,5-a]pyrazine-3-carbonitrile]: the Emax on RET(KD: 658-1114 G810R) was below 50%. For the same compound, the DC50 at RET(KD: 658-1114 G810R) (setting [1]) is below 100 nM. In addition, at RET(KD: 658-1114 G810R) (HiBiT-Degradation), the “293T.165 RET(KD: 658-1114 G810R) 6.0 hours (Emax)” value is recorded as “+++ (<50% = +++)”, the “293T.165 RET(KD: 658-1114 G810R) 6.0 hours (IP) [nM]” value was “++++ (< 50 nM = ++++)” and the DC50 is below 100 nM. Besides, on RET (658-1114) (HiBiT-Degradation), the “293T.144 RET” value is recorded as “++++ (< 50 nM = ++++)”, the DC50 is below 50 nM and the Emax was below 30%.
Take `N#Cc1cnn2cc(-c3cnn(C4CCC(N5CCN(c6ccc(NC7CCC(=O)NC7=O)cc6F)CC5)CC4)c3)nc(-c3ccc(N4C[C@H]5COC[C@@H](C4)N5CC4CCC(F)(F)CC4)nc3)c12` (single isomer, unassigned) [Compound 150]: at RET(KD: 658-1114 G810R), the “293T.165 RET(KD: 658-1114 G810R) 6.0 hours (IP) [nM]” value was “++++ (<50 nM = ++++)” and the Emax was below 30%. At RET (658-1114), the “293T.144 RET” value is listed as “++++ (<50 nM = ++++)”. Also, the Emax at RET (658-1114) (% remaining protein) was below 30%. Moreover, the DC50 at RET (658-1114) (setting [1]) is below 50 nM.
In the case of `N#Cc1cnn2cc(-c3cnn(C4CCN(C(=O)CC5(O)CCN(c6ccc(NC7CCC(=O)NC7=O)cc6F)CC5)CC4)c3)nc(-c3ccc(N4CCN(C(=O)C5CCCCC5)CC4)nc3)c12` (stereo not drawn) [Compound 107, 4-[6-[4-(cyclohexanecarbonyl)piperazin-1-yl]-3-pyridyl]-6-[1-[1-[2-[1-[4-[(2,6-dioxo-3-piperidyl)amino]-2-fluoro-phenyl]-4-hydroxy-4-piperidyl]acetyl]-4-piperidyl]pyrazol-4-yl]pyrazolo[1,5-a]pyrazine-3-carbonitrile], at RET(KD: 658-1114 G810R), the “293T.165 RET(KD: 658-1114 G810R) 6.0 hours (IP) [nM]” value is “++++ (<50 nM = ++++)”. Moreover, the Emax on RET(KD: 658-1114 G810R) and on RET (658-1114) (% remaining protein) was below 30% each time. Moreover, the DC50 at RET(KD: 658-1114 G810R) (setting [1]) is below 100 nM; on RET (658-1114) (setting [1]), below 50 nM. Moreover, the “293T.144 RET” value on RET (658-1114) is on record as “++++ (<50 nM = ++++)”.

The record behind these values is patent publication US12661410B2, “Compounds for targeted degradation of RET” (C4 Therapeutics, Inc., priority 2020, dated 2026).
